Measurements published in patent US6468980B1, “Methods and compositions for potentiating cancer chemotherapeutic agents” (Oxycal Laboratories, Inc., priority 2000, dated 2002).

System: SK-Hep-1, a liver adenocarcinoma (hepatoma) cells
Experiment: BrdU cell proliferation ELISA, adriamycin plus ascorbate adjuvant, hepatoma cells
Format: cell-based, human
Conditions: for suppression of hepatoma proliferation, ADR plus adjuvant compared with ADR alone: adjuvant 0.5 mM AA equivalents, one application of ADR (0.003-0.3 micromolar), two applications of adjuvant, FIG. 1
Source text: Calcium ascorbate (CA), calcium threonate (CT), 4-hydroxy-5-methyl-3(2H)-furanone (FR) and Ester-C (EC) are obtained from Inter-Cal Corporation, Prescott, Ariz., USA. Tissue culture grade Ascorbic acid (AA) is from Sigma Chemical Company, St. Louis, Mo., USA. The composition of calcium ascorbate (calcium di-(L-ascorbate) dihydrate) is made by sequentially dissolving individual components in sterile water to obtain master-stock solutions of equal strength (1% w/v). Aqueous solution of calcium ascorbate plus calcium threonate plus 4-hydroxy-5-methyl-3(2H)-furanone (CA/CT/FR) is prepared at ratio of 85/7.5/7.5. For comparative analysis, stock solutions containing identical ascorbic acid (AA) equivalents are used. All master stocks are stored at room temperature during the course of these procedures. From these, 10× strength working stocks are prepared by serial dilution on the day of use and are applied to cells in microtiter plates as described below.
Adriamycin (doxorubicin) is obtained from Sigma Chemical Company (St. Louis, Mo.). Stock solutions are made by dissolving adriamycin (ADR) in sterile water and DTIC in water or dilute acetic acid solution (0.01N). Stocks are stored frozen at −10 C and thawed prior to use. Serial dilutions are made in sterile water to obtain 10× strength solutions and […] of this is applied to cells at the time of treatment.
Target human tumor-derived or normal lines consist of SK-Hep-1, a liver adenocarcinoma ([…]) and Malme-3M, a malignant melanoma. All seed cultures are obtained from ATCC, Mannassas, Va., USA and are propagated/maintained in serum-containing growth medium in a humidified incubator of 5% CO2/95% air. SH-Hep-1 cells are grown in Eagle's minimum essential medium (EMEM) in Earle's salts plus non-essential amino acids supplemented with 10% FBS plus antibiotics and Malme-3M cells are cultured in McCoy's medium supplemented with 15% fetal bovine serum (FBS) plus antibiotics.
For treatment, exponentially growing cells are seeded at a density of 1×10^4 cells per well of 96-well microtiter plate in 0.1-0.2 ml of growth medium. After overnight cell attachment at 37 C, duplicate wells are exposed to various treatments by direct application of one-tenth volume of 10× strength solution. For treatments involving chemotherapeutic agent, one-tenth volume of serial dilutions of adriamycin (0.0006-3.0 micromolar) are applied to wells followed by application of ascorbate-containing composition (adjuvant) or sterile water (control). The adjuvant treatment is repeated every other day or on the third day (as applicable) without change of growth medium. Untreated controls receive an equivalent amount of sterile water. After 2-3 treatments with adjuvant, cells are labeled with BudR as described below. (In some experiments, wells are refed an equal volume of growth medium prior to additional of BudR. This gives a higher amount of BrdU incorporation into DNA relative to no refluiding).
For DNA labeling, the following procedure are adapted and modified from the Cell Proliferation ELISA, BudR (Colorimetric) assay of Roche Diagnostics, Indianapolis, IN, USA: Each treated well is exposed to one-tenth volume of 10× BrdU-containing medium and reincubated and 37 C overnight (15-20 hrs.). One set of control wells is exposed to medium only (no BudR) to obtain an absorbance-control (substrate only) blank for the assay. After the labeling period, the culture medium is removed and the cells are fixed and DNA denatured in one step by adding FixDenat (30 min at RT). Then, FixDenat is removed, the anti-BrdU-peroxidase reagent is added and incubation continues for 90 min at RT. After removal of the latter, the plate is washed 3 times, followed by addition of substrate solution. The plate is kept at RT until color development became sufficient for photometric detection (5-10 min). […]

| Compound | suppression of hepatoma proliferation, ADR plus adjuvant compared with ADR alone (dihydrate) | suppression of hepatoma proliferation, ADR plus adjuvant compared with ADR alone (listed as Calcium Ascorbate (CA), dihydrate) | suppression of hepatoma proliferation, ADR plus adjuvant compared with ADR alone (listed as Calcium ascorbate, dihydrate) | effect of adjuvant on anti-proliferation activity of low doses of ADR in hepatoma cells (adjuvant at 0.033%, FIG. 4) | suppression of hepatoma proliferation, ADR plus adjuvant compared with ADR alone | suppression of hepatoma proliferation, ADR plus adjuvant compared with ADR alone (listed as Ascorbic Acid (AA)) |
| --- | --- | --- | --- | --- | --- | --- |
| calcium di-(L-ascorbate) dihydrate | greater suppression of hepatoma proliferation than ADR alone | greater suppression of hepatoma proliferation than doxorubicin alone | more effective than ascorbic acid | consistently improve the anti-proliferation activity of low doses of ADR | – | – |
| O=C1O[C@H]([C@@H](O)CO)C(O)=C1O [AA, Ascorbic acid, reference compound] | – | – | – | – | greater suppression of hepatoma proliferation than ADR alone | greater suppression of hepatoma proliferation than doxorubicin alone |
